IC50 data for 9 compounds are collected here from patent publication US9920032B2, “Heterocyclic compounds useful as pim kinase inhibitors” (Incyte Corporation, priority 2015, dated 2018).

Where only a bound is given, the exact number is not on record here.

Common to all, as to assay type: biochemical
One assay concerns the target Pim-1 (Homo sapiens (Human), UniProt P11309). In words: Pim-1 kinase assay. To be noted: 1 mM ATP; read-out: PIM1 IC50. As to the method: (§1) Pim-1 and Pim-3 kinase assays—20 μL reactions were run in white 384 well polystyrene plates dotted with 0.8 μL compound/DMSO in the assay buffer (50 mM Tris, pH 7.5, 0.01% Tween-20, 5 mM mgCl2, 0.01% BSA, 5 mM DTT), containing 0.05 μM Biotin-labeled BAD peptide substrate (AnaSpec 62269), 1 mM ATP, and 2.5 pM (Pim-1, Invitrogen PV3503) or 1.25 pM (Pim-3, Millipore 14-738) enzyme for 1 h at 25° C. Reactions were stopped by addition of 10 μL STOP Buffer (150 mM Tris, pH=7.5, 150 mM NaCl, 75 mM EDTA, 0.01% Tween-20, 0.3% BSA,) supplemented with Phospho-Bad (Ser112) Antibody (Cell Signaling 9291) diluted 666-fold, and Streptavidin donor beads (PerkinElmer 6760002) along with Protein-A acceptor beads (PerkinElmer 6760137) at […]. Supplementation of the STOP buffer with beads and stopping the reactions were done under reduced light. Prior to the stopping reactions STOP buffer with beads was preincubated for 1 h in the dark at room temperature. After stopping the reactions, plates were incubated for 1 h in the dark at room temperature before reading on a PHERAstar FS plate reader (BMG Labtech) under reduced light.

The target in another assay is Pim-2 (Homo sapiens (Human), UniProt Q9P1W9). In words: Pim-2 kinase assay. Conditions: 1 mM ATP; read-out: PIM2 IC50. The procedure:
Pim-2 kinase assay—20 μL reactions were run in white 384 well polystyrene plates dotted with 0.8 μL compound/DMSO in the assay buffer (50 mM Tris, pH 7.5, 0.01% Tween-20, 5 mM mgCl2, 0.01% BSA, 5 mM DTT), containing 0.05 μM Fluorescein-labeled CREBtide peptide substrate (Invitrogen PV3508), 1 mM ATP, and 1 nM enzyme (Invitrogen PV3649) for 2 h at 25° C. Reactions were stopped by addition of 10 μL TR-FRET Dilution Buffer (Invitrogen PV3574) with 30 mM EDTA and 1.5 nM LanthaScreen Tb-CREB pSer133 antibody (Invitrogen PV3566). After 30 min. incubation at room temperature, plates were read on a PHERAstar FS plate reader (BMG Labtech).

The next assay has as its target Pim-3 (Homo sapiens (Human), UniProt Q86V86). In words: Pim-3 kinase assay. Conditions: 1 mM ATP; read-out: PIM3 IC50. As to the method: as §1

For orientation: IC50 means the point on the concentration scale where inhibition reaches its midpoint.

Sequence of Pim-1 (P11309 whole entry): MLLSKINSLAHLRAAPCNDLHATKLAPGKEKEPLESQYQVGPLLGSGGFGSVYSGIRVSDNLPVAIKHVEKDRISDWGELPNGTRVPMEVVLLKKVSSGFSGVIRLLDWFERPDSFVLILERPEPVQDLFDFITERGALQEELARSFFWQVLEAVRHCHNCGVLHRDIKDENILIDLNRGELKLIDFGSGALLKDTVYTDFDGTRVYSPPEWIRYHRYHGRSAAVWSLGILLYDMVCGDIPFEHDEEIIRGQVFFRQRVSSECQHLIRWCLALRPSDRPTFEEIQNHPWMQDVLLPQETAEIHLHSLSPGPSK
Sequence of Pim-2 (Q9P1W9 whole entry): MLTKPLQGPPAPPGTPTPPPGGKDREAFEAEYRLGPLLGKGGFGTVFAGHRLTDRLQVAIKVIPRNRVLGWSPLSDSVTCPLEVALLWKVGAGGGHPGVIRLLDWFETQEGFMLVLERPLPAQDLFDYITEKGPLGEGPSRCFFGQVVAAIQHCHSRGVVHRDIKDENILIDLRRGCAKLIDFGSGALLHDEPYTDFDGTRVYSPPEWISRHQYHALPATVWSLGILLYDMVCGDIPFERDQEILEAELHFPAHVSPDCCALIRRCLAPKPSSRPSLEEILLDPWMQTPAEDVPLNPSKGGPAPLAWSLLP

With `COC1CCN(c2cnc3c(C(=O)Nc4cnccc4[C@@H]4C[C@H](C)C[C@H](N)C4)ccc(F)c3c2)CC1` [Example 131, N-(4-((1R,3S,5S)-3-Amino-5-methylcyclohexyl)pyridin-3-yl)-5-fluoro-3-(4-methoxypiperidin-1-yl)quinoline-8-carboxamide], the IC50 was ≤ 0.01 µM on Pim-1, 0.1 to 1 µM at Pim-2 and ≤ 0.01 µM on Pim-3.
As for `C[C@@H]1C[C@H](N)C[C@H](c2ccncc2NC(=O)c2ccc(F)c3cc(N4C5CCC4CC(O)C5)cnc23)C1` (stereo partly drawn) [Example 98, N-(4-((1R,3S,5S)-3-Amino-5-methylcyclohexyl)pyridin-3-yl)-5-fluoro-3-(3-hydroxy-8-azabicyclo[3.2.1]octan-8-yl)quinoline-8-carboxamide], the half-maximal inhibitory concentration (IC50) on Pim-1 is ≤ 0.01 µM; on Pim-2, ≤ 0.1 µM; on Pim-3, ≤ 0.01 µM.
Take `COC(=O)N1CCN(c2cnc3c(C(=O)Nc4cnccc4[C@@H]4C[C@H](C)C[C@H](N)C4)ccc(F)c3c2)[C@@H](C)C1` [Example 88, (S)-Methyl 4-(8-(4-((1R,3S,5S)-3-amino-5-methylcyclohexyl)pyridin-3-ylcarbamoyl)-5-fluoroquinolin-3-yl)-3-methylpiperazine-1-carboxylate]: the results for the half-maximal inhibitory concentration (IC50) at Pim-1, on Pim-2 and at Pim-3 were ≤ 0.01 µM, ≤ 0.1 µM and ≤ 0.01 µM, respectively.
Turning to `CC1CCC1N(C)c1cnc2c(C(=O)Nc3cnccc3[C@@H]3C[C@H](C)C[C@H](N)C3)ccc(F)c2c1` (stereo partly drawn) [Example 147, N-(4-((1R,3S,5S)-3-Amino-5-methylcyclohexyl)pyridin-3-yl)-5-fluoro-3-(methyl(2-methylcyclobutyl)amino)quinoline-8-carboxamide], the IC50 on Pim-1 is ≤ 0.01 µM; on Pim-2 it was ≤ 0.1 µM; at Pim-3, ≤ 0.01 µM.
As for `CC1CCCCN1c1cnc2c(C(=O)Nc3cnccc3[C@@H]3C[C@H](C)C[C@H](N)C3)ccc(F)c2c1` (stereo partly drawn) [Example 43, N-(4-((1R,3S,5S)-3-Amino-5-methylcyclohexyl)pyridin-3-yl)-5-fluoro-3-(2-methylpiperidin-1-yl)quinoline-8-carboxamide], the concentration for half-maximal inhibition (IC50) is ≤ 0.01 µM on Pim-1, ≤ 0.1 µM at Pim-2 and ≤ 0.01 µM on Pim-3.
Take `C[C@@H]1C[C@H](N)C[C@H](c2ccncc2NC(=O)c2ccc(F)c3cc(-c4cnn(C)c4)cnc23)C1` [Example 64, N-(4-((1R,3S,5S)-3-Amino-5-methylcyclohexyl)pyridin-3-yl)-5-fluoro-3-(1-methyl-1H-pyrazol-4-yl)quinoline-8-carboxamide]: the values for the IC50 at Pim-1, at Pim-2 and on Pim-3 were ≤ 0.01 µM, 0.1 to 1 µM and ≤ 0.01 µM, respectively.
As to `Cc1nn(C)cc1-c1cnc2c(C(=O)Nc3cnccc3[C@@H]3C[C@H](C)C[C@H](N)C3)ccc(F)c2c1` [Example 63, N-(4-((1R,3S,5S)-3-Amino-5-methylcyclohexyl)pyridin-3-yl)-3-(1,3-dimethyl-1H-pyrazol-4-yl)-5-fluoroquinoline-8-carboxamide], the half-inhibitory concentration (IC50) is ≤ 0.01 µM on Pim-1, 0.1 to 1 µM at Pim-2 and ≤ 0.01 µM at Pim-3.
Take `C[C@@H]1C[C@H](N)C[C@H](c2ccncc2NC(=O)c2ccc(F)c3cc(N4CCCC[C@H]4C)cnc23)C1` [Example 169, N-(4-((1R,3S,5S)-3-Amino-5-methylcyclohexyl)pyridin-3-yl)-5-fluoro-3-((R)-2-methylpiperidin-1-yl)quinoline-8-carboxamide]: the IC50 is ≤ 0.01 µM at Pim-1, ≤ 0.1 µM on Pim-2 and ≤ 0.01 µM on Pim-3.
As for `CC(C)N(C)c1cnc2c(C(=O)Nc3cnccc3[C@@H]3C[C@H](C)C[C@H](N)C3)ccc(F)c2c1` [Example 56, N-(4-((1R,3S,5S)-3-Amino-5-methylcyclohexyl)pyridin-3-yl)-5-fluoro-3-(isopropyl(methyl)amino)quinoline-8-carboxamide], the IC50 at Pim-1 is ≤ 0.01 µM; on Pim-2, ≤ 0.1 µM; on Pim-3, ≤ 0.01 µM.
